Molecules are shown by their SMILES. Bounds are passed on as bounds.

As a reminder, the IC50 is the point on the concentration scale where inhibition reaches its midpoint. As usually defined, the melting point is the temperature, or range, at which the solid turns liquid.

Data set [1] addresses T1, human IKKβ (Homo sapiens, UniProt O14920).
T1 construct: FLAG (N)
T1 sequence (O14920 1-756): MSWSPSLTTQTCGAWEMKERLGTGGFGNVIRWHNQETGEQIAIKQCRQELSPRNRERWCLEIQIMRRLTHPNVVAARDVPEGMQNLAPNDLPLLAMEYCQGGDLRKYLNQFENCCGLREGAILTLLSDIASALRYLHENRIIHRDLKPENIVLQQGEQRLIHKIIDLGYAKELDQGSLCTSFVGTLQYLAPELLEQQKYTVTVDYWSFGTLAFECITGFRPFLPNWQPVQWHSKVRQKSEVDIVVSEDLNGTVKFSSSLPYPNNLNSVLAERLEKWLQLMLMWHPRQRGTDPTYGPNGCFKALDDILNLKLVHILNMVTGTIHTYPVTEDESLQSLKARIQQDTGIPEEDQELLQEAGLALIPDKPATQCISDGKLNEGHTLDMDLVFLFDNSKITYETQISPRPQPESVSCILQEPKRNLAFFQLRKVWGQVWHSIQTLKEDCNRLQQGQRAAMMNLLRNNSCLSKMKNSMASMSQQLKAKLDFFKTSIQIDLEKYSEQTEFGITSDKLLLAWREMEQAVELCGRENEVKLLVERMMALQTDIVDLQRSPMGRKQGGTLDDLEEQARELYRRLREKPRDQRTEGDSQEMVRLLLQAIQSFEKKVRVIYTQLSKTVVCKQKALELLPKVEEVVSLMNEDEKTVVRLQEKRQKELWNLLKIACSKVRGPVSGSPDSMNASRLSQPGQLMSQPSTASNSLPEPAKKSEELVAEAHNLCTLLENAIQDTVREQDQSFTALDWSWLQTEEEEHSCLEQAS
Put plainly: IKKβ kinase inhibition assay (phosphorylation of IκBα substrate, 33P-ATP). The format is biochemical. As to conditions: flag-tagged human IKKβ 0.9 μg/ml, GST-IκBα (1-54) 53 μg/ml, 250 nM ATP, 1 hour at 25° C. Summed up: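 N-terminally Flag-tagged human IKKα (3.6 μg/ml) or IKKβ (0.9 μg/ml) phosphorylating GST-IκBα(1-54) (245 or 53 μg/ml respectively), 250 nM ATP plus [33P]ATP, pH 7.5 HEPES with Mg2+/Mn2+, 2% DMSO; 5 min compound preincubation, 1 h at 25 °C.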

The target of data set [2] is T2, human IKKα (Homo sapiens, UniProt O15111).
T2 construct: FLAG (N)
T2 sequence (O15111 1-745): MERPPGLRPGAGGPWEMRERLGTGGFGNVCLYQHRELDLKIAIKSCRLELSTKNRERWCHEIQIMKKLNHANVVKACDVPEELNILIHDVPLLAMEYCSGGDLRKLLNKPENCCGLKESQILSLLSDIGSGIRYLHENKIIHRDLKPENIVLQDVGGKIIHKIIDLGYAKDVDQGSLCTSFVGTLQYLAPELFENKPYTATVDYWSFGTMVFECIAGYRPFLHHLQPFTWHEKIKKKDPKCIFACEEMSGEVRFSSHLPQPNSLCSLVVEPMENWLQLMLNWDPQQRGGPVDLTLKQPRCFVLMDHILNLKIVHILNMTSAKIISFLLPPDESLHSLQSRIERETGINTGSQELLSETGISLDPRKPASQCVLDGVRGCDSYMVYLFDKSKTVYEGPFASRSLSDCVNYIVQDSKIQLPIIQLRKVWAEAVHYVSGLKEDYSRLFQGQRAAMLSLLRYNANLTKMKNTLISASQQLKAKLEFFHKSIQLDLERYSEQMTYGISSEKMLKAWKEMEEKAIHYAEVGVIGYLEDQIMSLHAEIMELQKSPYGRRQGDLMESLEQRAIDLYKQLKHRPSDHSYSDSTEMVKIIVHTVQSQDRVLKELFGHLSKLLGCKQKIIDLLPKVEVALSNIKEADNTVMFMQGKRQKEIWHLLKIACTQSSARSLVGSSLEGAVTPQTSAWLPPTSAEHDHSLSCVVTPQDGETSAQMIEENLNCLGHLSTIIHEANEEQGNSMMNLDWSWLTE
Put plainly: IKKα kinase inhibition assay (phosphorylation of IκBα substrate, 33P-ATP). Type of data set: biochemical. To be noted: flag-tagged human IKKα 3.6 μg/ml, GST-IκBα (1-54) 245 μg/ml, 250 nM ATP, 1 hour at 25° C. The protocol:
The inhibition of IKKα and IKKβ by the compounds of the present invention was determined with the following assay that measures the phosphorylation of the IκBα substrate by the respective kinases. The enzymes used in the assay were N-terminally flag-tagged versions of the human IKKβ or IKKα and the substrate was a GST fusion protein with IκBα (amino acids 1-54).
The reaction mixtures (60 μl) contained 20 mM HEPES pH 7.5, 10 mM MgCl2, 2 mM MnCl2, 100 mM NaCl, 100 μM Na3VO4, 20 mM β-glycerophosphate, 1 mM DTT, 2% DMSO, 250 nM ATP, 0.4 nM [^33P]ATP (specific activity, 3000 Ci/mmol), IκBα substrate, IKK enzyme and test compound. The reaction mixtures contained either 3.6 μg/ml IKKα and 245 μg/ml IκBα or 0.9 μg/ml IKKβ and 53 μg/ml IκBα.
Reactions were initiated by adding a solution of IκBα substrate and ATP to polypropylene plates containing IKK enzyme that was pre-incubated for 5 minutes with test compound. Then the reaction mixtures were incubated for 1 hour at 25° C., placed on ice and quenched by the addition of 150 μl 10% trichloroacetic acid and 5% disodium pyrophosphate. After mixing, the entire contents of the quenched reaction mixtures were transferred to a pre-wetted Packard UniFilter filtration plate, aspirated and washed 6 times with 250 μl of ddH2O using the Packard Filtermate Harvester. Filtration plates were then air dried, supplemented with 40 μl of Microscint 20 scintillation fluid and the ^33P-labeled reaction products were quantified using the Packard TopCount scintillation counter.
Compounds were tested in three-fold serial dilutions and inhibitor concentrations to achieve 50% inhibition of enzyme activity (i.e., IC50) were derived from dose-reponse curves using SAS software (SAS Institute, Cary N.C.). A non-linear regression analysis based on the Hill equation was applied to the percent inhibition versus concentration data. In all cases, compound concentrations were verified by HPLC.

As to `NC(=O)c1sc2nc(N3CCC(N)CC3)cc(C3CC3)c2c1N` [3-Amino-6-(4-amino-piperidin-1-yl)-4-cyclopropyl-thieno[2,3-b] pyridine-2-carboxylic acid amide], the results for the IC50 in data set [1] and in data set [2] were below 1 µM and at most 10 µM, respectively. For the molecule `CNC1CCN(c2cc(OCC(F)(F)F)c3c(N)c(C(N)=O)sc3n2)CC1` [3-Amino-6-(4-methylamino-piperidin-1-yl)-4-(2,2,2-trifluoro-ethoxy)-thieno[2,3-b]pyridine-2-carboxylic acid amide], the IC50 is below 1 µM in data set [1] and at most 10 µM in data set [2]. `CC(C)c1cc(N2CCC(N)CC2)nc2sc(C(N)=O)c(N)c12` [3-Amino-6-(4-amino-piperidin-1-yl)-4-isopropyl-thieno[2,3-b] pyridine-2-carboxylic acid amide]: the figures for the half-maximal inhibitory concentration (IC50) in data set [1] and in data set [2] were below 1 µM and at most 10 µM, respectively. The like results for `CCCc1cc(N2CCC(NCC(O)c3ccc(-c4nccs4)cc3)CC2)nc2sc(C(N)=O)c(N)c12` (centres unmarked) [3-Amino-6-{4-[2-hydroxy-2-(4-thiazol-2-yl-phenyl)-ethylamino]-piperidin-1-yl}-4-propyl-thieno[2,3-b]pyridine-2-carboxylic acid amide] were, in that order, below 1 µM and at most 10 µM.

Regarding `CNC1CCN(c2cc(SC)c3c(N)c(C(N)=O)sc3n2)CC1` [3-Amino-6-(4-methylamino-piperidin-1-yl)-4-methylsulfanyl-thieno[2,3-b]pyridine-2-carboxylic acid amide], the IC50 is below 1 µM in data set [1] and at most 10 µM in data set [2]. For `CCCc1cc(N2CCC(NCc3nnn[nH]3)CC2)nc2sc(C(N)=O)c(N)c12` [3-Amino-4-propyl-6-{4-[(1H-tetrazol-5-ylmethyl)-amino]-piperidin-1-yl}-thieno[2,3-b] pyridine-2-carboxylic acid amide], in that order: below 1 µM and at most 10 µM. On to `Cc1cc(N2CCC(N)CC2)nc2sc(C(N)=O)c(N)c12` [3-Amino-6-(4-amino-piperidin-1-yl)-4-methyl-thieno[2,3-b] pyridine-2-carboxylic acid amide], for which the values for the IC50 in data set [1] and in data set [2] were below 1 µM and at most 10 µM, respectively. The like results for `NC(=O)c1sc2nc(N3CCC(NCC(O)c4ccc(-c5nccs5)cc4)CC3)cc(C(F)(F)F)c2c1N` (centres unmarked) [3-Amino-6-{4-[2-hydroxy-2-(4-thiazol-2-yl-phenyl)-ethylamino]-piperidin-1-yl}-4-trifluoromethyl-thieno[2,3-b]pyridine-2-carboxylic acid amide] were, in that order, below 1 µM and at most 10 µM. The like results for `CCc1cc(N2CCC(N)CC2)nc2sc(C(N)=O)c(N)c12` [3-Amino-6-(4-amino-piperidin-1-yl)-4-ethyl-thieno[2,3-b] pyridine-2-carboxylic acid amide] were, in that order, below 1 µM and at most 10 µM. For the molecule `CCCc1cc(N2CCC(NCC(O)c3ccc(-c4nccn4C)cc3)CC2)nc2sc(C(N)=O)c(N)c12` (centres unmarked) [3-Amino-6-(4-{2-hydroxy-2-[4-(1-methyl-1H-imidazol-2-yl)-phenyl]-ethylamino}-piperidin-1-yl)-4-propyl-thieno[2,3-b] pyridine-2-carboxylic acid amide], the IC50 in data set [1] was below 1 µM; in data set [2], at most 10 µM. As for `NC(=O)c1sc2nc(N3CCC(N)CC3)cc(/C=C/c3ccncc3)c2c1N` [3-Amino-6-(4-amino-piperidin-1-yl)-4-((E)-2-pyridin-4-yl-vinyl)-thieno[2,3-b]pyridine-2-carboxylic acid amide], the half-inhibitory concentration (IC50) in data set [1] is below 1 µM; in data set [2], at most 10 µM. The like results for `NC(=O)c1sc2nc(N3CCC(N)CC3)cc(C(N)=O)c2c1N` [3-Amino-6-(4-amino-piperidin-1-yl)-thieno[2,3-b]pyridine-2,4-dicarboxylic acid diamide] were, in that order, below 1 µM and at most 10 µM. Regarding `CCCc1cc(N2CCC(NCC(=O)Nc3cccc4ccccc34)CC2)nc2sc(C(N)=O)c(N)c12` [3-Amino-6-{4-[(naphthalen-1-ylcarbamoylmethyl)-amino]-piperidin-1-yl}-4-propyl-thieno[2,3-b] pyridine-2-carboxylic acid amide], the half-inhibitory concentration (IC50) in data set [1] was below 1 µM; in data set [2] it was at most 10 µM. Take `CNC1CCN(c2cc(C(F)F)c3c(N)c(C(N)=O)sc3n2)CC1` [3-Amino-4-difluoromethyl-6-(4-methylamino-piperidin-1-yl)-thieno[2,3-b]pyridine-2-carboxylic acid amide]: the IC50 is below 1 µM in data set [1] and at most 10 µM in data set [2].

For the molecule `CNC1CCN(c2cc(C(F)(F)F)c3c(N)c(C(N)=O)sc3n2)CC1` [3-Amino-6-(4-methylamino-piperidin-1-yl)-4-trifluoromethyl-thieno[2,3-b]pyridine-2-carboxylic acid amide], the IC50 in data set [1] is below 1 µM; in data set [2], at most 10 µM. The like results for `CCCc1cc(N2CCC(NC3CC3)CC2)nc2sc(C(N)=O)c(N)c12` [3-Amino-6-(4-cyclopropylamino-piperidin-1-yl)-4-propyl-thieno[2,3-b] pyridine-2-carboxylic acid amide] were, in that order, below 1 µM and at most 10 µM. On to `CCCc1cc(N2CCC(NCC(O)c3ccc(-c4cccnc4)cc3)CC2)nc2sc(C(N)=O)c(N)c12` (centres unmarked) [3-Amino-6-{4-[2-hydroxy-2-(4-pyridin-3-yl-phenyl)-ethylamino]-piperidin-1-yl}-4-propyl-thieno[2,3-b] pyridine-2-carboxylic acid amide], for which the results for the IC50 in data set [1] and in data set [2] were below 1 µM and at most 10 µM, respectively. In turn, `CCCc1cc(N2CCC(NCC(O)c3ccc(NS(C)(=O)=O)cc3)CC2)nc2sc(C(N)=O)c(N)c12` (centres unmarked) [Example 12, 3-Amino-6-{4-[2-hydroxy-2-(4-methanesulfonylamino-phenyl)-ethylamino)-piperidin-1-yl]-4-propyl-thieno[2,3-b]pyridine-2-carboxylic acid amide] gave a melting point of 199 to 200 °C.

The values above are taken from patent US6974870B2, “Substituted 3-amino-thieno [2,3-b]pyridine-2-carboxylic acid amide compounds and processes for preparing and their uses” (Boehringer Ingelheim Phamaceuticals, Inc., priority 2002, dated 2005).
